# Patent US20260231939A1, “ARTHROPOD CONTROL COMPOSITIONS” (Firmenich SA, priority 2022, published 2026)
# Like-named read-outs stand apart in the source and are kept apart here.
# How the values were obtained:
# Aedes aegypti = assay: Warm Body assay, mosquito landings on the baited warm body; assay type: in vivo; conditions: for pest or weed control at 16 µg/mL / pest or weed control at 400 µg/mL / pest or weed control at 10000 µg/mL: Aedes aegypti, read-out: Percentage of repellence of mosquitoes landing on the warm body; for repellence efficacy compared with the saturated counterpart: Warm Body assay, paired t-test where given
# Description: (§1) The controlling effect according to the present invention was assessed using an adapted Warm Body assay as defined in Kröber T, Kessler S, Frei J, Bourquin M, Guerin P M. 2010. J Am Mosq Control Assoc. 26:381-386. In this in-vitro assay the number of mosquito landing on a warm body, simulating an attractive host treated with the tested stimuli, was measured in order to assess the repellence effect.
# The published protocol has been adapted as the switch from Anopheles gambiae to Ae. aegypti led to a decrease of mosquitoes placed in the tested cage due to the size difference (i.e. 30 mosquitoes instead of 50) and to an increase of lighting since Ae. aegypti is a diurnal mosquitoes (i.e. 150 lux instead of 4 lux).
# (§2) On the sandblasted glass Petri dish covering the warm body (28.3 cm^2), 100 μL of the compounds diluted at different concentrations in ethanol was applied. The number of mosquito landing on the warm body was counted for each stimulus. Number of landings on pure ethanol (solvent) control treatment was used to normalize the data and calculate the percentage of repellence.
# Ae. aegypti = assay: Arm-in-cage test on human volunteers; assay type: in vivo, Aedes aegypti
# Description: (§3) The Arm in the box method was adapted from the WHO Guidelines for efficacy testing of mosquito repellents for human skin (WHO/CDS/NTD/WHOPES/2009.4) and/or based on EU biocide testing guidelines (Guidance on the Biocidal Products Regulation. Vol. II Efficacy—Assessment and Evaluation (Parts B+C), v. 4.0. December 2021). The readiness of 200 hungry female mosquitoes Ae. aegypti or 50 An. gambiae to probe is assessed by inserting the untreated arm of human volunteers into the cage (40×40×40 cm) for 30 seconds (negative control) in order to determine probing activity. Then, the product is applied onto the skin of the forearm of the human volunteer (1 mL per 600 cm^2) and after 5 minutes (Ae. aegypti) or 30 minutes (An. gambiae), this arm is inserted into the cage and exposed for 3 minutes. The assay take place in temperature (27±2° C.) and humidity (80±10% RH) regulated room on three different human volunteers.
# An. gambiae = assay: Arm-in-cage test on human volunteers; assay type: in vivo, Anopheles gambiae; conditions: for time during which protection is 100%, i.e. no mosquito landing / Arm-in-cage repellence: 20% in ethanol; for time during which mosquito protection / repellence is >90%: 20% solution in ethanol; for repellent effect: dilution of 5%
# Description: as §3
# Anopheles gambiae = assay: Warm Body assay, mosquito landings on the baited warm body; assay type: in vivo
# Description: Anopheles gambiae is also a model organism as it is anthropophilic and transmits malaria.
# as §1, with “effect. […]” for “effect.”
# as §2
# Ixodes ricinus = assay: Warm Plate Assay for ticks
# [1] = γ-lactones, 0.016 mg/mL in ethanol
# [2] = γ-lactones, 0.4 mg/mL in ethanol
# [3] = γ-lactones, 10 mg/mL in ethanol
compound,measurement,setting,value
"CC1CCC2C(C1)OC(=O)C2C (stereo not shown) [3,6-dimethyl-3a,4,5,6,7,7a-hexahydro-3H-1-benzofuran-2-one]",pest or weed control at 16 µg/mL,"Aedes aegypti; more complex lactones (types A, B, C), 0.016 mg/mL",0%
same,pest or weed control at 400 µg/mL,"Aedes aegypti; more complex lactones (types A, B, C), 0.4 mg/mL",90%
same,pest or weed control at 10000 µg/mL,"Aedes aegypti; more complex lactones (types A, B, C), 10 mg/mL",98%
same,mosquitoes repelled for at least 1 h,Ae. aegypti; at 20%,> 95%
same,"Arm-in-cage repellence, mean of three volunteers","Ae. aegypti; at 20%, 30 min",100% ±
same,"Arm-in-cage repellence, mean of three volunteers","Ae. aegypti; at 20%, 1 h",99.93% ±
same,"Arm-in-cage repellence, mean of three volunteers","Ae. aegypti; at 20%, 2 h",92.21% ±
same,"Arm-in-cage repellence, mean of three volunteers","Ae. aegypti; at 20%, 3 h",86.52% ±
same,"Arm-in-cage repellence, mean of three volunteers","Ae. aegypti; at 20%, 4 h",66.02% ±
same,mosquitoes repelled for at least 1 h,An. gambiae; at 20%,> 95%
same,"Arm-in-cage repellence, mean of three volunteers","An. gambiae; at 20%, 30 min",100% ±
same,"Arm-in-cage repellence, mean of three volunteers","An. gambiae; at 20%, 1 h",93.7% ±
same,"Arm-in-cage repellence, mean of three volunteers","An. gambiae; at 20%, 2 h",67.05% ±
CCC=CCCC1CCC(=O)O1 (stereo not shown) [5-hex-3-enyloxolan-2-one],pest or weed control at 16 µg/mL,Aedes aegypti; [1],0%
same,pest or weed control at 400 µg/mL,Aedes aegypti; [2],81%
same,pest or weed control at 10000 µg/mL,Aedes aegypti; [3],95%
same,repellence efficacy compared with the saturated counterpart,Aedes aegypti,significantly higher
same,Percentage of repellence of mosquitoes landing on the warm body,Anopheles gambiae; 0.08 mg/mL,12%
same,Percentage of repellence of mosquitoes landing on the warm body,Anopheles gambiae; 0.178 mg/mL,38%
same,Percentage of repellence of mosquitoes landing on the warm body,Anopheles gambiae; 0.267 mg/mL,95%
same,Percentage of repellence of mosquitoes landing on the warm body,Anopheles gambiae; 0.598 mg/mL,93%
same,Percentage of repellence of mosquitoes landing on the warm body,Anopheles gambiae; 0.89 mg/mL,100%
same,Percentage of repellence of mosquitoes landing on the warm body,Anopheles gambiae; 2 mg/mL,100%
same,Percentage of repellence of mosquitoes landing on the warm body,Anopheles gambiae; 4.47 mg/mL,100%
same,Percentage of repellence of mosquitoes landing on the warm body,Anopheles gambiae; 10 mg/mL,100%
same,Arm-in-cage repellence,"Ae. aegypti; 20% in ethanol, 5 min post application",98.5% ±
same,Arm-in-cage repellence,"Ae. aegypti; 20% in ethanol, 1 h post application",97.0% ±
same,Arm-in-cage repellence,"Ae. aegypti; 20% in ethanol, 2 h post application",93.0% ±
same,Arm-in-cage repellence,"Ae. aegypti; 20% in ethanol, 3 h post application",88.3% ±
same,Arm-in-cage repellence,"Ae. aegypti; 20% in ethanol, 4 h post application",79.5% ±
same,time during which mosquito protection is >90%,Ae. aegypti; 20% solution in ethanol,2 h
same,"time during which protection is 100%, i.e. no mosquito landing",An. gambiae,4 h
same,Arm-in-cage repellence,An. gambiae; 30 min post application,100% ±
same,Arm-in-cage repellence,An. gambiae; 1 h post application,100% ±
same,Arm-in-cage repellence,An. gambiae; 2 h post application,100% ±
same,Arm-in-cage repellence,An. gambiae; 3 h post application,100% ±
same,Arm-in-cage repellence,An. gambiae; 4 h post application,100% ±
same,Arm-in-cage repellence,An. gambiae; 5 h post application,97.85% ±
same,Arm-in-cage repellence,An. gambiae; 6 h post application,80.07% ±
same,time during which mosquito protection / repellence is >90%,An. gambiae,5 h
same,Percentage of repellence of ticks on the warm plate,Ixodes ricinus; 0.40 mg/mL,17%
same,Percentage of repellence of ticks on the warm plate,Ixodes ricinus; 10 mg/mL,100%
C=CCCCCC1CCC(=O)O1 (stereo not shown) [5-hex-5-enyloxolan-2-one],pest or weed control at 16 µg/mL,Aedes aegypti; [1],14%
same,pest or weed control at 400 µg/mL,Aedes aegypti; [2],89%
same,pest or weed control at 10000 µg/mL,Aedes aegypti; [3],100%
same,Percentage of repellence of mosquitoes landing on the warm body,Anopheles gambiae; 0.08 mg/mL,65%
same,Percentage of repellence of mosquitoes landing on the warm body,Anopheles gambiae; 0.178 mg/mL,72%
same,Percentage of repellence of mosquitoes landing on the warm body,Anopheles gambiae; 0.267 mg/mL,73%
same,Percentage of repellence of mosquitoes landing on the warm body,Anopheles gambiae; 0.598 mg/mL,88%
same,Percentage of repellence of mosquitoes landing on the warm body,Anopheles gambiae; 0.89 mg/mL,98%
same,Percentage of repellence of mosquitoes landing on the warm body,Anopheles gambiae; 2 mg/mL,100%
same,Percentage of repellence of mosquitoes landing on the warm body,Anopheles gambiae; 4.47 mg/mL,100%
same,Percentage of repellence of mosquitoes landing on the warm body,Anopheles gambiae; 10 mg/mL,100%
CCC=CCC1CCCC(=O)O1 (stereo not shown) [6-pent-2-enyloxan-2-one],repellence efficacy compared with the saturated counterpart,Aedes aegypti,significantly more efficient
same,repellence efficacy compared with the saturated counterpart,"Anopheles gambiae; Warm Body assay, paired t-test, FIG. 4",significantly more efficient
same,repellence efficacy compared with saturated 6-pentyloxan-2-one,"Ae. aegypti; Arm-in-Cage, 20% in ethanol, paired t-test, FIG. 5",more efficient
same,"time during which protection is 100%, i.e. no mosquito landing",An. gambiae,4 h
same,time during which mosquito protection / repellence is >90%,An. gambiae,6 h
same,repellent effect,An. gambiae; 30 min after application,100%
same,repellent effect,An. gambiae; 1 h after application,99.2%
same,repellent effect,An. gambiae; 2 h after application,67.2%
same,"Arm-in-cage repellence, mean of three volunteers","An. gambiae; unsaturated δ-lactones at 20%, 30 min",100% ±
same,"Arm-in-cage repellence, mean of three volunteers","An. gambiae; unsaturated δ-lactones at 20%, 1 h",100% ±
same,"Arm-in-cage repellence, mean of three volunteers","An. gambiae; unsaturated δ-lactones at 20%, 2 h",100% ±
same,"Arm-in-cage repellence, mean of three volunteers","An. gambiae; unsaturated δ-lactones at 20%, 3 h",100% ±
same,"Arm-in-cage repellence, mean of three volunteers","An. gambiae; unsaturated δ-lactones at 20%, 4 h",100% ±
same,"Arm-in-cage repellence, mean of three volunteers","An. gambiae; unsaturated δ-lactones at 20%, 5 h",99.2% ±
same,"Arm-in-cage repellence, mean of three volunteers","An. gambiae; unsaturated δ-lactones at 20%, 6 h",92.3% ±
same,"Arm-in-cage repellence, mean of three volunteers","An. gambiae; unsaturated δ-lactones at 20%, 7 h",87.8% ±
same,Percentage of repellence of ticks on the warm plate,Ixodes ricinus; 0.08 mg/mL,33%
same,Percentage of repellence of ticks on the warm plate,Ixodes ricinus; 0.18 mg/mL,42%
same,Percentage of repellence of ticks on the warm plate,Ixodes ricinus; 0.40 mg/mL,75%
same,Percentage of repellence of ticks on the warm plate,Ixodes ricinus; 0.89 mg/mL,100%
same,Percentage of repellence of ticks on the warm plate,Ixodes ricinus; 2 mg/mL,100%
same,Percentage of repellence of ticks on the warm plate,Ixodes ricinus; 10 mg/mL,100%
same,lower dose at which 100% of repellent efficacy is already reached,Ixodes ricinus; in vivo,0.089%
C=CCCC1CCCCC(=O)O1 (stereo not shown) [7-but-3-enyloxepan-2-one],pest or weed control at 16 µg/mL,"Aedes aegypti; β- and ε-lactones, 0.016 mg/mL",43%
same,pest or weed control at 400 µg/mL,"Aedes aegypti; β- and ε-lactones, 0.4 mg/mL",75%
same,pest or weed control at 10000 µg/mL,"Aedes aegypti; β- and ε-lactones, 10 mg/mL",99%
O=C1CCCCC(C2CCCCC2)O1 (stereo not shown) [7-cyclohexyloxepan-2-one],pest or weed control at 16 µg/mL,"Aedes aegypti; β- and ε-lactones, 0.016 mg/mL",0%
same,pest or weed control at 400 µg/mL,"Aedes aegypti; β- and ε-lactones, 0.4 mg/mL",10%
same,pest or weed control at 10000 µg/mL,"Aedes aegypti; β- and ε-lactones, 10 mg/mL",26%
C=CCCCC1CCCCC(=O)O1 (stereo not shown) [7-pent-4-enyloxepan-2-one],pest or weed control at 400 µg/mL,"Aedes aegypti; β- and ε-lactones, 0.4 mg/mL",95%
same,pest or weed control at 10000 µg/mL,"Aedes aegypti; β- and ε-lactones, 10 mg/mL",100%
same,Percentage of repellence of mosquitoes landing on the warm body,"Aedes aegypti; β- and ε-lactones, 0.4 mg/mL",95%
CCCCCC1CCCCC(=O)O1 (stereo not shown) [7-pentyloxepan-2-one],pest or weed control at 400 µg/mL,"Aedes aegypti; β- and ε-lactones, 0.4 mg/mL",52%
same,pest or weed control at 10000 µg/mL,"Aedes aegypti; β- and ε-lactones, 10 mg/mL",98%
same,Percentage of repellence of mosquitoes landing on the warm body,"Aedes aegypti; β- and ε-lactones, 0.4 mg/mL",52%
CC(C)(C)C1CCCCC(=O)O1 (stereo not shown) [7-tert-butyloxepan-2-one],pest or weed control at 16 µg/mL,"Aedes aegypti; β- and ε-lactones, 0.016 mg/mL",0%
same,pest or weed control at 400 µg/mL,"Aedes aegypti; β- and ε-lactones, 0.4 mg/mL",0%
same,pest or weed control at 10000 µg/mL,"Aedes aegypti; β- and ε-lactones, 10 mg/mL",66%
CCC=CC[C@H]1CCCC(=O)O1 [(6R)-6-pent-2-enyloxan-2-one],pest or weed control at 16 µg/mL,"Aedes aegypti; δ-lactones, 0.016 mg/mL",78%
same,pest or weed control at 400 µg/mL,"Aedes aegypti; δ-lactones, 0.4 mg/mL",100%
same,pest or weed control at 10000 µg/mL,"Aedes aegypti; δ-lactones, 10 mg/mL",98%
CCC=CC[C@@H]1CCCC(=O)O1 [(6S)-6-pent-2-enyloxan-2-one],pest or weed control at 16 µg/mL,"Aedes aegypti; δ-lactones, 0.016 mg/mL",73%
same,pest or weed control at 400 µg/mL,"Aedes aegypti; δ-lactones, 0.4 mg/mL",96%
same,pest or weed control at 10000 µg/mL,"Aedes aegypti; δ-lactones, 10 mg/mL",96%
"C=C/C=C/C1C(=O)OC1CCCCC (stereo not shown) [(E)-3-buta-1,3-dienyl-4-pentyloxetan-2-one]",pest or weed control at 16 µg/mL,"Aedes aegypti; β- and ε-lactones, 0.016 mg/mL",71%
same,pest or weed control at 400 µg/mL,"Aedes aegypti; β- and ε-lactones, 0.4 mg/mL",82%
same,pest or weed control at 10000 µg/mL,"Aedes aegypti; β- and ε-lactones, 10 mg/mL",100%
"C=C/C=C\C1C(=O)OC1CCCCC (stereo not shown) [(Z)-3-buta-1,3-dienyl-4-pentyloxetan-2-one]",pest or weed control at 16 µg/mL,"Aedes aegypti; β- and ε-lactones, 0.016 mg/mL",64%
same,pest or weed control at 400 µg/mL,"Aedes aegypti; β- and ε-lactones, 0.4 mg/mL",87%
same,pest or weed control at 10000 µg/mL,"Aedes aegypti; β- and ε-lactones, 10 mg/mL",95%
